Experimental data taken from ChEMBL document CHEMBL1201862, “PubChem BioAssay data set” (2004).
Active and inactive are the calls of the source. For most assays here, no stated cut-off is given here; in the data, actives have a measured EC50 and inactives only a lower limit.

Key:
BJ [1] = assay: cells; type: functional, cell-based; details: Homo sapiens
[2] = DRD fibroblast viability loss – cell-based, non-viral oncogenic, luminescence, dose response (AID 1934); type: functional; details: Homo sapiens
BJ [3] = assay: BJ-TERT-LT-ST fibroblast viability loss – cell-based, RAS-independent, luminescence, dose response (AID 1935); type: functional; details: Homo sapiens;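 further: BJ fibroblasts immortalized with TERT plus LT and ST oncogenes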
[4] = HEK-293T cell viability reduction – luminescence, B-cell screen hits, cytotoxicity control for BCR NF-kB inhibitor project, dose response (AID 489021); type: functional, cell-based;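 further: HEK-293T cells carrying an NF-kB luciferase reporter; cells exposed to compound for about 14 hours before viability readout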
[5] = luciferase reporter signal suppression in cells – H4 neuroglioma cells, luminescence, dose response (AID 1990); type: functional, cell-based
[6] = alpha-synuclein stem-loop translation blockers – luminescence, H4 neuroglioblastoma cells, dose confirmation, confirmation (AID 2454); type: functional, cell-based;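 further: H4 neuroglioblastoma cells carrying an alpha-synuclein 5'UTR luciferase reporter; potency for inhibition of the luciferase signal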
[7] = alpha-synuclein stem-loop luciferase translation blockers – H4 neuroglioma cells, luminescence, confirmation (AID 1988); type: functional, cell-based
cells [8] = type: functional, cell-based
[9] = luciferase reporter signal reduction – luminescence, H4-C neuroglioblastoma cells, dose response (AID 2458); type: functional, cell-based;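 further: H4 neuroglioblastoma cells stably carrying a luciferase reporter gene fusion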
BJ [10] = assay: BJ-TERT fibroblast viability loss – cell-based, RAS-independent, luminescence, dose response (AID 1933); type: functional; details: Homo sapiens
[11] = M. tuberculosis H37Rv growth inhibitors, H37Rv strain (AID 1626); type: functional
[12] = molecular target: Induced myeloid leukemia cell differentiation protein Mcl-1 (Homo sapiens, UniProt Q07820); type: functional
Induced myeloid leukemia cell differentiation protein Mcl-1, sequence (Q07820 whole entry): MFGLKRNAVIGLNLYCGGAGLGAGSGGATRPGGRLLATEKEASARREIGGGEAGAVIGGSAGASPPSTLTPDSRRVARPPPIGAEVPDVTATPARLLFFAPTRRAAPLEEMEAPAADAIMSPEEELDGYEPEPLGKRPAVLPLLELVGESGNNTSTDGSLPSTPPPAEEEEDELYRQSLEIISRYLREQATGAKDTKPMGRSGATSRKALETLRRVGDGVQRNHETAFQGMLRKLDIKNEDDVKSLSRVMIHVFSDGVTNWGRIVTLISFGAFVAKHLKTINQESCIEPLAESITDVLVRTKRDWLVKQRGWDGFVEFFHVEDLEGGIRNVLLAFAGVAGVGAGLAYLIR

Bcl-2-like protein 10 = molecular target: T1, Bcl-2-like protein 10 (Homo sapiens, UniProt Q9HD36); assay: Bcl-B/TR3 peptide binding disruption – biochemical, fluorescence polarization, FITC-TR3 peptide, selectivity assay for Bfl-1 inhibitor project, primary screen (AID 748);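 further: fluorescence polarization from a fluorescein-labelled TR3 peptide binding purified Bcl-B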
T1 sequence (Q9HD36 whole entry): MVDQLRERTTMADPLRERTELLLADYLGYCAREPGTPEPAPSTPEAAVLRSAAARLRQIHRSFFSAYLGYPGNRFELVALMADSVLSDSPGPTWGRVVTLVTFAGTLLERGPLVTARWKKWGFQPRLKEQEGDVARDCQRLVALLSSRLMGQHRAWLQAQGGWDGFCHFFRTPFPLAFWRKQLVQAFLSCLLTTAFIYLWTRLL

Nonstructural protein 1 = Nonstructural protein 1 (Influenza A virus, UniProt Q194T2); type: functional, Influenza A virus (A/California/07/2009(H1N1))
Nonstructural protein 1, sequence (Q194T2 whole entry): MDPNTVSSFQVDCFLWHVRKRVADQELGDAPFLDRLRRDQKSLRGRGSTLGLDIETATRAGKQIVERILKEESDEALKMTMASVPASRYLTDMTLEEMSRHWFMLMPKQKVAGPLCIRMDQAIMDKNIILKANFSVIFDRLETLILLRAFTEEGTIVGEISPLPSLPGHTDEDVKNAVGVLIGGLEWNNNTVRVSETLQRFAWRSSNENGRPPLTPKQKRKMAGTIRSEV

[13] = NIH3T3 cell viability loss – ATP luminescence, mouse fibroblasts, counter-screen, dose response (AID 2010); type: functional, cell-based;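 further: cells exposed to compound for about 90 hours before reading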
[14] = Trypanosoma cruzi growth suppression in host cells – NIH3T3 host cells, beta-gal luminescence, confirmation (AID 2044); type: functional, cell-based;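 further: intracellular parasites grown in NIH/3T3 mouse fibroblasts as host cells; luminescent beta-galactosidase reporter signal from transgenic T. cruzi replicating inside host cells; inhibitors lower the luminescence signal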
cells [15] = assay: cells
[16] = molecular target: T2, Tyrosine-protein phosphatase non-receptor type 7 (Homo sapiens, UniProt P35236); assay: HePTP tyrosine phosphatase activity blockers – biochemical, absorbance, leukemia target, primary screen (AID 521); type: functional
T2 sequence (P35236 whole entry): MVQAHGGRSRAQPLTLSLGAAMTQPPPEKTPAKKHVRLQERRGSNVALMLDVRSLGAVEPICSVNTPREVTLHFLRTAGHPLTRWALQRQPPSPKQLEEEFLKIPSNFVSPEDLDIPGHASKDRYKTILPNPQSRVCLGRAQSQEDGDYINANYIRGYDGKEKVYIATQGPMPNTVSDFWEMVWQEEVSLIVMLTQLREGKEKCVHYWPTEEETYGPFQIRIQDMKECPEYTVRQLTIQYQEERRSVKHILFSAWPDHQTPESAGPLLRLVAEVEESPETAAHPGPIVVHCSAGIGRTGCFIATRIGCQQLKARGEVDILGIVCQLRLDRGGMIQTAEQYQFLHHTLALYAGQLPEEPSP

[17] = molecular target: T3, Heat shock factor protein 1 (Mus musculus, UniProt P38532); assay: enhancement of HSF1-driven luciferase signal – cell-based, NIH3T3, luminescence, dose retest, confirmation (AID 435004); type: functional;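 further: stress induced by proteasome inhibitor MG132 added 30 min after compound; luciferase reporter driven by HSF1 response element in NIH3T3 cells; actives raise luminescence as potentiators of the MG132 stress response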
T3 sequence (P38532 whole entry): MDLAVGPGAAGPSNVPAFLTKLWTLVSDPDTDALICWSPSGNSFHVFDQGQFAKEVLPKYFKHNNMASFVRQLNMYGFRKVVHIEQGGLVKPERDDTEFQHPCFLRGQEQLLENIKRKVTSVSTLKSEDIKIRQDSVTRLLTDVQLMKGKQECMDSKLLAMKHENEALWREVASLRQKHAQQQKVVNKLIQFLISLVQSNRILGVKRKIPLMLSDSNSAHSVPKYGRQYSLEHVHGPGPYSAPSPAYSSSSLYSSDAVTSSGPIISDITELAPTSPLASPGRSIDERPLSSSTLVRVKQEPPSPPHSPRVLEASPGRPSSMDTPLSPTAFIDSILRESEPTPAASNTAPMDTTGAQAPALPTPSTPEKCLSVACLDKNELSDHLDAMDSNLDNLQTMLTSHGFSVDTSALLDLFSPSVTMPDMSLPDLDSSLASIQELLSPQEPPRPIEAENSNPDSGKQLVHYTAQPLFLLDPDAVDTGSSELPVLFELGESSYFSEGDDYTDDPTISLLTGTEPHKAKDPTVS

HT-1080 = assay: HT1080 cell viability loss – fluorescence readout (AID 620); type: functional, cell-based; details: Homo sapiens
[18] = molecular target: Luciferin 4-monooxygenase (Photinus pyralis, UniProt P08659); assay: Counter Screen for Luciferase-based Assay Positives. [Related pubchem assays: 620, 618, 411 ]
Luciferin 4-monooxygenase, sequence (P08659 whole entry): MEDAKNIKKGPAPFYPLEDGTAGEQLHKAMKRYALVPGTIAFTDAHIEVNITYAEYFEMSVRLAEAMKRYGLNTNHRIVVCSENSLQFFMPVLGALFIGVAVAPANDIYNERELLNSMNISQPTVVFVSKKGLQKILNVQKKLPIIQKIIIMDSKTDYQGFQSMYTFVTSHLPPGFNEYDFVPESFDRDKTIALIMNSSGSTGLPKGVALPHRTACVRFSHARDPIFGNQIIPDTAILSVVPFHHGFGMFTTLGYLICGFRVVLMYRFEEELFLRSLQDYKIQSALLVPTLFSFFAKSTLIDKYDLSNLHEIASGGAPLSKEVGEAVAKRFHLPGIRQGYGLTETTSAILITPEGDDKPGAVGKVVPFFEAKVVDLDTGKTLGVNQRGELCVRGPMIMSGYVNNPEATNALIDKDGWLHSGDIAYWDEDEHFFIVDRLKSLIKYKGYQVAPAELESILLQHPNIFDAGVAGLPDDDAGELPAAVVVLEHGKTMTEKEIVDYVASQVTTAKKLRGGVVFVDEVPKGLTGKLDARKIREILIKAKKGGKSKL

Beta-lactamase [19] = molecular target: Beta-lactamase (Pseudomonas aeruginosa, UniProt Q79MP6);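 further: biochemical dose-response test of metallo-beta-lactamase enzyme inhibition, read out by epi-absorbance; purified recombinant IMP-1 metallo-beta-lactamase with nitrocefin as substrate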
Beta-lactamase (Pseudomonas aeruginosa, UniProt Q79MP6), sequence (Q79MP6 whole entry): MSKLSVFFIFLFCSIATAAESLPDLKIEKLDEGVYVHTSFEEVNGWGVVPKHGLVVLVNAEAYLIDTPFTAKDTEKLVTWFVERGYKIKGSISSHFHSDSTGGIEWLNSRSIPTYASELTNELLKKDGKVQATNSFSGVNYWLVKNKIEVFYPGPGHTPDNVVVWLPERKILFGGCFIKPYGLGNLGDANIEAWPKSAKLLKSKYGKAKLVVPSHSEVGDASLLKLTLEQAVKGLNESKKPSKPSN

[20] = molecular target: T4, Zinc finger protein mex-5 (Caenorhabditis elegans, UniProt Q9XUB2); assay: potency of MEX-5 RNA-binding blockers – biochemical, C. elegans, fluorescence polarization, dose response (AID 1960)
T4 sequence (Q9XUB2 whole entry): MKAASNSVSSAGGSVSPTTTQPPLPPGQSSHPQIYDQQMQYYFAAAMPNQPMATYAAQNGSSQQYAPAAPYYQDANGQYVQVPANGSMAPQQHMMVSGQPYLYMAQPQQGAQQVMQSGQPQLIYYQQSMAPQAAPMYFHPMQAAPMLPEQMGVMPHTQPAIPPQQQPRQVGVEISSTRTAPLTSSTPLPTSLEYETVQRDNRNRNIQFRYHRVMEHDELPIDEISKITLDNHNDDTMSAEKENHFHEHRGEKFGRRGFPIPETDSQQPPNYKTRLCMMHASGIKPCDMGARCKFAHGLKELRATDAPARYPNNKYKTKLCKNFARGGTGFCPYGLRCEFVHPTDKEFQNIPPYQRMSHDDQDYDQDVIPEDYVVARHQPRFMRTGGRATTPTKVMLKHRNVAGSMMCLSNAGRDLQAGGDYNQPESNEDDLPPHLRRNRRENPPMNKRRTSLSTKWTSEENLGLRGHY

[21] = molecular target: T5, RNA-binding protein pos-1 (Caenorhabditis elegans, UniProt G5EF15); assay: disruptors of C. elegans POS-1 RNA interaction – biochemical, fluorescence polarization, dose response (AID 1964);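 further: purified POS-1 fused to maltose binding protein made in E. coli; potency of compounds blocking POS-1 binding to fluorescent RNA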
T5 sequence (G5EF15 whole entry): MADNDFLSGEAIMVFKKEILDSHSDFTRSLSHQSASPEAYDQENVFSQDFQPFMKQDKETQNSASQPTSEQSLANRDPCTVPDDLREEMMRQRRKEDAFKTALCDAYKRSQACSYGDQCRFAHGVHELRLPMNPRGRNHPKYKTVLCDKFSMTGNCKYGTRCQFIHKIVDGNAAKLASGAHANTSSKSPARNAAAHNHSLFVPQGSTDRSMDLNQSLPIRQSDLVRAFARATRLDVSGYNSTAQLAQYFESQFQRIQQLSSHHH

[22] = molecular target: G-protein coupled receptor 35 (Homo sapiens, UniProt Q9HC97); assay: inhibition of zaprinast-stimulated GPR35 beta-arrestin translocation – imaging, U2OS, beta-arrestin-GFP, zaprinast agonist, primary screen (AID 2058); type: functional;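 further: antagonist potency meaning inhibition of agonist-induced arrestin redistribution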
G-protein coupled receptor 35, sequence (Q9HC97 whole entry): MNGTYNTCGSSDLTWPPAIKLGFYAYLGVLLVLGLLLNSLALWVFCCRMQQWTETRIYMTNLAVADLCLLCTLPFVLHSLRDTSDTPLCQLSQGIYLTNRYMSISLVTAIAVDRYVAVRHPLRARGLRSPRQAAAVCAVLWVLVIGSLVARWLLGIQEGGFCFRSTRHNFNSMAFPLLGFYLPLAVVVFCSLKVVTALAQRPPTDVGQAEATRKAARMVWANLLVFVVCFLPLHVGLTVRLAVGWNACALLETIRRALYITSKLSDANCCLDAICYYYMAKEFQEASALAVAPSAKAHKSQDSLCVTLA

Beta-lactamase [23] = molecular target: Beta-lactamase (Salmonella choleraesuis (strain SC-B67), UniProt Q5J463)
Beta-lactamase (Salmonella choleraesuis (strain SC-B67), UniProt Q5J463), sequence (Q5J463 whole entry): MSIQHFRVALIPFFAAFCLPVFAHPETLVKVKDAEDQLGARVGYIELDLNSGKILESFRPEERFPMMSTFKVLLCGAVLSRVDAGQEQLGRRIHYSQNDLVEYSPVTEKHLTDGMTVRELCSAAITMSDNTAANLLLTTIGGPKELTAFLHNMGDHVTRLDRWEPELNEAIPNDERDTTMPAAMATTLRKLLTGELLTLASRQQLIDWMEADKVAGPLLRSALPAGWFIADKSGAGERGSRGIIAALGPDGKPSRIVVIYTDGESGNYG

For CCOC(=O)Cc1ccc(NC(=O)c2ccc(C(C)(C)C)cc2)cc1, the EC50 (BJ [1]) was > 150 µM (not active), the EC50 [2] was 49.5 µM (active) and the EC50 (BJ [3]) was > 150 µM (inconclusive). The IC50 [4] was 42.8 µM (inactive), the EC50 [5] was < 0.1 µM (active) and the EC50 [6] was 0.483 µM (active). The EC50 [7] was < 0.1 µM (active), the EC50 (cells [8]) was 0.508 µM (active) and the EC50 [9] was 0.266 µM (active). The EC50 (BJ [10]) was 60.1 µM (active).
For CCCCOC(=O)c1ccc(NC(=O)C(=O)NCc2ccccn2)cc1, the IC50 [11] was > 100 µM (active).
In the case of CN(C)c1ccc(NC(=O)CN2C(=O)CN=C(c3ccccc3)c3cc(Cl)ccc32)cc1, the IC50 [12] was 0.856 µM (not active), the IC50 (Bcl-2-like protein 10) was > 100 µM (inactive) and the IC50 (Nonstructural protein 1) was 31 µM (active).
For Cc1ccc(-c2csc(N=C(N)N)n2)c(C)c1, the EC50 [13] was > 60 µM (not active), the EC50 [14] was < 0.1 µM (active) and the EC50 (cells [15]) was 0.167 µM (active).
With O=C(NCc1cccc(F)c1)c1noc2c1CCCC2 the IC50 [16] was > 100 µM (not active) and the EC50 [17] was > 260 µM (inactive).
With CC1CCc2nc(NC(=O)C3CCCO3)sc2C1 (stereo unspecified) the EC50 (HT-1080) was > 50 µM (not active) and the EC50 [18] was < 0.2 µM (active).
For CN1C(=O)/C(=C\c2ccc(N(C)C)cc2)OC1=S, the IC50 (Beta-lactamase [19]) was > 59.6 µM (inactive), the EC50 [20] was > 300 µM (inconclusive) and the EC50 [21] was > 300 µM (not active). For the same compound, the IC50 [22] was 1.12 µM (active) and the IC50 (Beta-lactamase [23]) was > 59.6 µM (inactive).
